Laboratory results reported in PMC9814779, “A triple farnesoid X receptor and peroxisome proliferator-activated receptor α/δ activator reverses hepatic fibrosis in diet-induced NASH in mice” (Communications Chemistry, 2020).
Where two headings read alike, the source gives them in different places.

Key:
[1] = Microsomal stability assay; assay type: in vitro ADME, rat; conditions: 10 μM, rat liver microsomes, 37 °C; 41 n = 3, 7-EC n = 1
[2] = molecular target: T1, human FXR:retinoid X receptor (RXR) heterodimer (Homo sapiens, UniProt Q96RI1); experiment: Full-length FXR reporter gene assay (BSEP response element) in HeLa cells; assay type: cell-based; design: Emax: dose or concentration left out as unconfirmed; conditions: for Emax: read-out: max. rel. act. FXR
T1 construct: pcDNA3-hFXR[32] and pSG5-hRXR[33] served for receptor overexpression in the full-length FXR assay; expressed in transfected cells; host or cells: HeLa

[3] = molecular target: T2, human PPARα ligand-binding domain (Gal4 chimera) (Homo sapiens, UniProt Q07869); experiment: Gal4 hybrid reporter gene assay, PPARα; assay type: cell-based; design: Emax: dose or concentration left out as unconfirmed; conditions: for EC50: EC50 [μM] PPARα; for Emax: read-out: max. rel. act. PPARα
T2 construct: coding for the hinge region and LBD of the canonical isoform of the respective nuclear receptor; expressed in transfected cells; host or cells: HEK293T
T2 sequence (Q07869 239-466 limits assumed): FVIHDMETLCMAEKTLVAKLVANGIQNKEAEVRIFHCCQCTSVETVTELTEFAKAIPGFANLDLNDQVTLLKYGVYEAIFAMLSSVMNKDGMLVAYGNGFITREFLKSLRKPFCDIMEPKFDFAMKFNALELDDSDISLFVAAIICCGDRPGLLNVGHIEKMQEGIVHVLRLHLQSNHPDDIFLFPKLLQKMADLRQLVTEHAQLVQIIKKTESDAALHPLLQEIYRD

[4] = molecular target: T3, human PPARδ ligand-binding domain (Gal4 chimera) (Homo sapiens, UniProt Q03181); experiment: Gal4 hybrid reporter gene assay, PPARδ; assay type: cell-based; design: Emax: dose or concentration left out as unconfirmed; conditions: for Emax: read-out: max. rel. act. PPARδ
T3 construct: coding for the hinge region and LBD of the canonical isoform of the respective nuclear receptor; expressed in transfected cells; host or cells: HEK293T
T3 sequence (Q03181 211-439 limits assumed): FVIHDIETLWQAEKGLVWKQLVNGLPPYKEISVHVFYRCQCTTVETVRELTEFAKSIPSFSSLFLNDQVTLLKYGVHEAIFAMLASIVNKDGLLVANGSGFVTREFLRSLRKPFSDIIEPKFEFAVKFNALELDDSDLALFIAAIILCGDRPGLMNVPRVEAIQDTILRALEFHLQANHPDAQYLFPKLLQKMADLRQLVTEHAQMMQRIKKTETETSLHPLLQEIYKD

[5] = molecular target: T4, human PPARγ ligand-binding domain (Gal4 chimera) (Homo sapiens, UniProt P37231); experiment: Gal4 hybrid reporter gene assay, PPARγ; assay type: cell-based; design: Emax: dose or concentration left out as unconfirmed; conditions: for Emax: read-out: max. rel. act. PPARγ
T4 construct: coding for the hinge region and LBD of the canonical isoform of the respective nuclear receptor; expressed in transfected cells; host or cells: HEK293T
T4 sequence (P37231 238-503 limits assumed): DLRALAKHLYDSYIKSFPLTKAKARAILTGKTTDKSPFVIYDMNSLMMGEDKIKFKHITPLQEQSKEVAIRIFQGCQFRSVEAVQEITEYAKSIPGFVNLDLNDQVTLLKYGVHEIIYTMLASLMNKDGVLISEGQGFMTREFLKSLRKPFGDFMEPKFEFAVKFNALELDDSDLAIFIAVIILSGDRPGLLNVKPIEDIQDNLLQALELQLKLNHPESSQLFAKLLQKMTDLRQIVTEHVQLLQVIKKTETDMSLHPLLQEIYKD

[6] = HeLa, mean ± SEM, n = 3, read-out: EC50 [μM] FXR
[7] = EC50 [μM] PPARδ, HEK293T, mean ± SEM, n = 3
[8] = HEK293T, mean ± SEM, n = 3, read-out: EC50 [μM] PPARδ
[9] = HEK293T, mean ± SEM, n = 3, read-out: EC50 [μM] PPARγ

T1 sequence (P19793 whole entry): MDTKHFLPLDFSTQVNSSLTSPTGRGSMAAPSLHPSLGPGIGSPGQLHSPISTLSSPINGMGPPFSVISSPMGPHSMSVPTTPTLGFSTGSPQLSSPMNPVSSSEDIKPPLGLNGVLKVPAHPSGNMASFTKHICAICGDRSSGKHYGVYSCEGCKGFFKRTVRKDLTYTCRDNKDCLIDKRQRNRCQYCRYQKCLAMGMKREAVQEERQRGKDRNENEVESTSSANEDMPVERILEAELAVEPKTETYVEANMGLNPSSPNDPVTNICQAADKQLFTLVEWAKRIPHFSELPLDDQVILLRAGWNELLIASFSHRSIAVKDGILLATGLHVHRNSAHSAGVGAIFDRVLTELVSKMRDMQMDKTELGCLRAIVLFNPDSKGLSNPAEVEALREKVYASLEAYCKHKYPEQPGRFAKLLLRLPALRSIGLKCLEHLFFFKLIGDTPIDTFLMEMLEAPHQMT
T1 sequence (Q96RI1 whole entry): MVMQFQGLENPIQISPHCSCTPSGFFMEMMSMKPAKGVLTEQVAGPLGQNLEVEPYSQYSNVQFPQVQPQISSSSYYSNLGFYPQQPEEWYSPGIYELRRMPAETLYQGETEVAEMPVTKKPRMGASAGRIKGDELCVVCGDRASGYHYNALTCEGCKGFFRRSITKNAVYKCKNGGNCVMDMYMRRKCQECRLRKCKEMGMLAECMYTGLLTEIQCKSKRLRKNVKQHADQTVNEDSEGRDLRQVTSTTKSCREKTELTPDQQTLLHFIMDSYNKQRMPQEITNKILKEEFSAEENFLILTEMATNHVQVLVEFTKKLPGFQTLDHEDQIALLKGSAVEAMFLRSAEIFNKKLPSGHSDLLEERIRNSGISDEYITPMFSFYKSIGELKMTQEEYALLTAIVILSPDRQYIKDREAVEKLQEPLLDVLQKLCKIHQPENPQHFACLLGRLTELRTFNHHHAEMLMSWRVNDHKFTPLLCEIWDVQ

SMILES | percent of remaining compound, 15 min [1] [%] | percent of remaining compound, 30 min [1] [%] | percent of remaining compound, 60 min [1] [%] | Emax ([2]; HeLa) [%] | EC50 [2, 6] [µM] | EC50 ([3]; HEK293T, mean ± SEM, n = 3) [µM] | Emax [3] [%] | EC50 [4, 7] [µM] | Emax [4] [%] | EC50 [5] [µM] | Emax [5] [%] | EC50 [2] [µM] | EC50 [4, 8] [µM] | EC50 [5, 9] [µM] | EC50 [μM] FXR ([2]; HeLa, mean ± SEM, n = 3) | EC50 [μM] PPARα ([3]; HEK293T, mean ± SEM, n = 3) | EC50 [μM] PPARδ ([4]; HEK293T, mean ± SEM, n = 3) | EC50 [μM] PPARγ ([5]; HEK293T, mean ± SEM, n = 3)
CCOc1ccc2ccc(=O)oc2c1 [7-EC, 7-Ethoxycoumarin, reference compound] | 87 | 75 | 55 |  |  |  |  |  |  |  |  |  |  |  |  |  |  | 
COc1ccc(C(=O)Nc2cccc(CCC(=O)O)c2)c(NC(=O)c2ccc3ccccc3c2)c1 [compound 22] |  |  |  | 22 | 11 ± 3 | 0.3 ± 0.04 | 43 | 0.06 ± 0.01 | 32 | 1.3 ± 0.1 | 27 |  |  |  |  |  |  | 
O=C(O)CCc1cccc(NC(=O)c2ccc(OC(F)(F)F)cc2NC(=O)c2ccc3ccccc3c2)c1 [compound 23] |  |  |  | 12 |  | 1.1 ± 0.3 | 31 | 0.38 ± 0.06 | 30 | 1 ± 0.2 | 15 | 1.1 ± 0.1 |  |  |  |  |  | 
O=C(O)CCc1cccc(NC(=O)c2cc(Cl)ccc2NC(=O)c2ccc3ccccc3c2)c1 [compound 25] |  |  |  | 12 | 2.6 ± 0.4 | 0.9 ± 0.2 | 42 | 0.28 ± 0.03 | 17 | 6 ± 1 | 26 |  |  |  |  |  |  | 
O=C(O)CCc1cccc(NC(=O)c2cc(O)ccc2NC(=O)c2ccc3ccccc3c2)c1 [compound 26] |  |  |  |  | > 10 | 8.9 ± 0.8 | 28 | 10 ± 2 | 24 | 13 ± 1 | 9 |  |  |  |  |  |  | 
COc1ccc(NC(=O)c2ccc3ccccc3c2)c(C(=O)Nc2cccc(CCC(=O)O)c2)c1 [compound 27] |  |  |  |  | > 10 | 0.23 ± 0.04 | 53 | 0.36 ± 0.01 | 23 | 2 ± 0.1 | 15 |  |  |  |  |  |  | 
O=C(O)CCc1cccc(NC(=O)c2cc(OC(F)(F)F)ccc2NC(=O)c2ccc3ccccc3c2)c1 [compound 28] |  |  |  |  | > 10 | 0.21 ± 0.02 | 54 | 0.1 ± 0.01 | 19 | 1.1 ± 0.2 | 18 |  |  |  |  |  |  | 
O=C(O)CCc1cccc(NC(=O)c2cc3c(cc2NC(=O)c2ccc4ccccc4c2)OCO3)c1 [compound 29] |  |  |  | 14 | 2.9 ± 0.6 | 0.46 ± 0.03 | 25 | 0.4 ± 0.1 | 31 | 0.9 ± 0.3 | 15 |  |  |  |  |  |  | 
O=C(O)CCc1cccc(NC(=O)c2ccccc2NC(=O)c2ccc(-c3ccccc3)cc2)c1 [compound 30] |  |  |  | 33 | 1.3 ± 0.2 | > 30 |  |  | 38 |  | 16 ± 10 |  | 2.5 ± 0.5 | 1.6 ± 0.2 |  |  |  | 
O=C(O)CCc1cccc(NC(=O)c2ccccc2NC(=O)c2ccc(-c3ccco3)cc2)c1 [compound 31] |  |  |  | 23 | 5.4 ± 0.1 | 1.8 ± 0.3 | 22 | 0.2 ± 0.01 | 43 | 2.2 ± 0.1 | 9 |  |  |  |  |  |  | 
O=C(O)CCc1cccc(NC(=O)c2ccccc2NC(=O)c2ccc(-c3cccs3)cc2)c1 [compound 33] |  |  |  | 21 | 1.7 ± 0.4 | 1.5 ± 0.1 | 27 | 0.64 ± 0.06 | 35 | 1.4 ± 0.2 | 11 |  |  |  |  |  |  | 
O=C(O)CCc1cccc(NC(=O)c2ccccc2NC(=O)c2ccc(-c3ccsc3)cc2)c1 [compound 34] |  |  |  | 18 | 0.6 ± 0.1 | 1.7 ± 0.1 | 32 | 1.6 ± 0.3 | 59 | 1.3 ± 0.2 | 17 |  |  |  |  |  |  | 
O=C(O)CCc1cccc(NC(=O)c2ccccc2NC(=O)c2ccc(-c3ccon3)cc2)c1 [compound 35] |  |  |  | 32 | 6.8 ± 0.6 | 8 ± 0.4 | 11 | 5.6 ± 0.4 | 29 | 5.8 ± 0.8 | 30 |  |  |  |  |  |  | 
O=C(O)CCc1cccc(NC(=O)c2ccccc2NC(=O)c2ccc(-c3cnoc3)cc2)c1 [compound 36] |  |  |  |  |  |  |  |  |  |  |  |  |  |  | Unstable | Unstable | Unstable | Unstable
O=C(O)CCc1cccc(NC(=O)c2ccccc2NC(=O)c2ccc(-c3cocn3)cc2)c1 [compound 37] |  |  |  | 41 | 6.9 ± 0.3 | 20 ± 1 | 36 | 12 ± 1 | 52 | 6 ± 1 | 15 |  |  |  |  |  |  | 
O=C(O)CCc1cccc(NC(=O)c2ccccc2NC(=O)c2ccc(-c3cnco3)cc2)c1 [compound 38] |  |  |  | 53 | 15 ± 4 | > 30 |  |  | 32 |  | 16 |  | 12 ± 1 | 5.3 ± 0.2 |  |  |  | 
O=C(O)CCc1cccc(NC(=O)c2ccccc2NC(=O)c2ccc(-n3ccnn3)cc2)c1 [compound 39] |  |  |  |  | > 10 | > 10 |  |  |  |  |  |  | > 10 | > 30 |  |  |  | 
COc1ccc(C(=O)Nc2cccc(NCC(=O)O)c2)c(NC(=O)c2ccc(-c3ccoc3)cc2)c1 [compound 40, (3-[2-{4-(3-Furyl)benzamido}-4-methoxybenzamido]phenyl)glycine] |  |  |  | 43 | 0.29 ± 0.01 | > 30 |  |  | 54 |  | 9 |  | 1.6 ± 0.1 | 7.7 ± 0.5 |  |  |  | 
